Experimental data published in patent publication US20070135378A1, “Method for the direct synthesis of oligorhamnosides, composition comprising oligorhamnosides and use thereof as a medicament” (priority 2003, published 2007).

Legend:
[1] = test system: 6-ketoPGF1α released by NHK; test: Assay of prostaglandin 6-ketoPGF1α after stimulation of keratinocytes (ELISA); type: cell-based, human; details: for inhibition at 1 µM: Homo sapiens, Keratinocyte, 2 h
Description: Prostaglandin I2 (PGI2) is an unstable metabolite of the arachidonic acid degradation pathway. Like prostaglandin E2, it is a mediator of inflammation with vasodilatory properties. The instability of PGI2 lies in its rapid conversion (non-enzymatic hydration) to 6-keto prostaglandin F1α (6-ketoPG1α). It is thus this prostaglandin which is measured as a marker for PGI2 synthesis. PMA (phorbol-12-myristate-13-acetate) is an activator of protein kinase C. It is a non-physiological activator which mimics the effect of cytokines, including IL-1β on NHK, and encourages the cell to release a lipid molecule, the prostaglandin 6-ketoPGF1α. This prostaglandin is assayed by means of an ELISA. The two activators IL-1β and PMA are used. Indomethacin, an aspirin-type analgesic, is an anti-inflammatory drug (NSAID) which […]. It is used to inhibit the release of 6-ketoPGF1α. Two experiments were carried out. The first consists of pretreating the NHK with oligorhamnosides for 4 hours and then monitoring the stimulation for 2 hours in the presence of oligorhamnosides. A second experiment was carried out in which the pretreatment with oligorhamnosides was extended to 12 hours.

[2] = test system: PGE2 released by human neutrophilic leukocytes; test: Assay of PGE2 released by human neutrophilic leukocytes; type: cell-based
Description: (§1) Neutrophils are isolated from normal human blood and purified by an original method. They are then activated by a stimulation buffer which causes the release of two types of lipid molecules, arachidonic acid derivatives, arising from the cyclooxygenase and lipoxygenase pathways, namely the leukotriene LTB4 and the prostaglandin PGE2. This stimulation buffer contains in particular Ca^2+ and Mg^2+ ions. These assays are carried out by means of an ELISA-type commercial assay kit. The results represent the means of the values assayed in two supernatants of cells stimulated during the same experiment.

dendritic cells [3] = type: cell-based
Description: Viability is determined from the mortality translated directly by the proportion of PI signal.

dendritic cells [4] = test: Dendritic cell maturation (CD86 B7.2 expression, allergenic effect); type: cell-based, human; details: control substances, concentration not given
Description: Three groups of cells are analyzed: 1) those which have not been exposed to oligorhamnosides or the selected activation signals, which will be used as negative controls, 2) those which were incubated for 24 hours with the activation signals, which will be used as positive controls, and 3) those which had been in contact with the oligorhamnosides for 24 hours. The culture medium used is a classical medium of type RPMI 1640 (Bioproducts), supplemented with 10% FCS, glutamine (2 mM) and the antibiotics penicillin and streptomycin (Bioproducts). The rinse liquid used is a PI buffer (Bioproducts). The cellular activator used is INFγ (SIGMA). The allergenic effect is reflected by the maturation of the dendritic cells and the expression of the CD86 B7.2 receptor. The more this receptor is expressed, the higher the proportion of mature cells and the more the rhamnosylated derivative studied has an allergenic effect.

keratinocytes = test: Toxicity test: viability of keratinocytes; type: cell-based; details: for % viability: vs control 100%
Excerpt: 1) Principles of Cellular Viability Measurement Techniques • MTT [3-(4,5-[…])-2,5-diphenyl tetrazolium bromide] reduction technique (sold by Sigma).
This technique corresponds to a […] test allowing quantification of living, metabolically active cells in a non-radioactive manner. MTT is a cationic molecule which is bound to the membranes of mitochondria in a potential-dependant fashion. On the level of the mitochondria, MTT will be reduced to formazan blue by mitochondrial dehydrogenase. The living cells are thus colored blue, in contrast with the dead cells which remain transparent. The measure of viability is then carried out by measurement of the optical density using an automatic reader.
This method of analysis, however, seems to be better adapted for adherent cells (keratinocyte-type) than for non-adherent cells (monocytes and dendritic cells). Another study was thus envisaged to conclude on the cytotoxicity of the oligorhamnosides with respect to the differentiated cells analyzed, namely flow cytometry in the presence of propidium iodide. • XTT tetrazolium salt reduction technique.
This is a technique allowing quantification of cellular proliferation and of the number of living (metabolically active) cells, without the incorporation of radioactive isotopes. XTT, yellow in color, is a cationic molecule which is bound to the membranes of mitochondria in a potential-dependant fashion, as does MTT.
On the level of the mitochondria, XTT will be reduced to formazan (orange) by mitochondrial tetrazolium reductase. […] Indeed, the reduction product is soluble within the cell. The method is thus faster. Living cells, in the absence and presence of a treatment become colored, in contrast with dead cells which remain colorless. The level of formazan product is detected with the spectrophotometer at a wavelength of 450 nm and is directly proportional to the number of metabolically active cells.
2) Toxicity Tests • Keratinocytes were isolated and placed in culture from human skin biopsies. Measurements of optical density (absorbance) of the 4 wells treated with the same product concentration were averaged. This average was compared with the average of the measurements obtained for the 4 control wells (Student's t-test—comparison of means—significant difference at 95% if p<0.05 and 99% if p<0.01).
The viabilities of the treated cells are expressed as a percentage compared to the control (untreated cells) of 100% (OD treated/OD control×100).

endothelial cells = test: Cytotoxicity test (MTT) on endothelial cell lines; type: cell-based
Description: • Endothelial cells were placed in culture, immortalized and stabilized in their phenotype. The cell lines studied were appendix endothelial cells, brain microvascular endothelial cells, mesenteric lymphatic ganglia endothelial cells, peripheral lymphatic ganglia endothelial cells and skin microvascular endothelial cells.
The cytotoxicity test was carried out by means of a biochemical test on the transformation of a tetrazolium salt, MTT. […] Viability is indeed always greater than 85%, and this is true for all of the cells lines studied.

[5] = test system: LTB4 released by human neutrophilic leukocytes; test: Assay of LTB4 released by human neutrophilic leukocytes; type: cell-based; details: stimulation buffer, 0.1 μM
Description: as §1, with “kit.” for “kit. The results represent the means of the values assayed in two supernatants of cells stimulated during the same experiment.”
The results represent the means of the values assayed in two supernatants of cells stimulated during the same experiment.

[6] = IL-1β stimulation 2 hours 1 ng/ml, 1 μM
[7] = PMA stimulation 2 hours 10 ng/ml, 1 μM

SMILES: COc1ccc2c(c1)c(CC(=O)O)c(C)n2C(=O)c1ccc(Cl)cc1 [indomethacin]
- inhibition at 1 µM [1, 6]: 17%
- inhibition at 1 µM [1, 7]: 37%
- Mean 6-ketoPGF1α [1, 6]: 22.6 ± 3.4 pg/ml/μg proteins
- Mean 6-ketoPGF1α [1, 7]: 20.9 ± 4.9 pg/ml/μg proteins
- Mean 6-ketoPGF1α ([1]; Table 7 experiment, IL-1β stimulation 2 hours 1 ng/ml, concentration not given): 22.6 ± 3.4 pg/ml/μg proteins
- PGE2 released, Without stimulation ([2]; 1 μM): 4.5 ± 0 pg/mL
- inhibition at 1 µM ([2]; Homo sapiens, Leukocyte, stimulation buffer): 69%
- PGE2 released, Stimulation ([2]; stimulation buffer, 1 μM): 6.8 ± 1 pg/mL

SMILES: C[S+](C)[O-] [DMSO control]
- Viability (propidium iodide, PI) (dendritic cells [3]): 1.27%
- CD86 B7.2 (Maturation) (dendritic cells [4]): 0.17%

SMILES: C[C@H](O)[C@H](O)[C@@H](O)[C@@H](O)C=O [Rhamnose, rhamnose]
- % viability (keratinocytes; 0.001 mg/ml): 95%
- % viability (keratinocytes; 0.01 mg/ml): 100%
- % viability (keratinocytes; 0.1 mg/ml): 98%
- % viability (keratinocytes; 1 mg/ml): 104%
- cytotoxicity (in words) (keratinocytes; even for the highest concentrations): does not exhibit cytotoxicity

SMILES: CCCCCOC1O[C@@H](C)[C@H](O)[C@@H](O)[C@H]1O (stereo partly shown) [pentyl-rhamnoside]
- Viability (endothelial cells; all of the cell lines studied): greater than 85%
- toxicity (in words) (endothelial cells; endothelial cell lines): no toxicity

SMILES: CC(Cc1ccc(O)c(O)c1)C(C)Cc1ccc(O)c(O)c1 (stereo not shown) [NDGA, nordihydroguaiaretic acid]
- % inhibition (LTB4 released) [5]: 73%
- LTB4 released, Stimulation [5]: 684 ± 185 pg/mL
